In PubChem BioAssay AID248 (DTP/NCI, 2004):
Values joined by “and” are separate entries in the source; they are usually repeats but may differ in a detail not shown here. Identical values can stand only once. Toxic doses and inconclusive results are not listed.

System: L1210 leukemia ip in BDF1 mice, survival T/C
Assay: NCI In Vivo Anticancer Drug Screen. Data for tumor model L1210 Leukemia (intraperitoneal) in B6D2F1 (BDF1) mice
Details: endpoint: mean survival time, higher = longer survival
How it was run: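 In this screen, tumor-bearing mice given compound are compared to those given vehicle, and their survival values are reported as a treated-to-control quotient.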

[1] = dose: 100.0 mg/kg/injection, schedule: Q01DX001 (ip), vehicle: saline
[2] = dose: 200.0 mg/kg/injection, schedule: Q01DX001 (ip), vehicle: saline
[3] = dose: 25.0 mg/kg/injection, schedule: Q01DX009 (ip), vehicle: saline with Tween-80
[4] = dose: 100.0 mg/kg/injection, schedule: Q01DX009 (ip), vehicle: saline with Tween-80
[5] = dose: 50.0 mg/kg/injection, schedule: Q01DX009 (ip), vehicle: Klucel (hydroxypropylcellulose) (HPC)
[6] = dose: 100.0 mg/kg/injection, schedule: Q04DX002 (ip), vehicle: Klucel (hydroxypropylcellulose) (HPC)
[7] = dose: 200.0 mg/kg/injection, schedule: Q04DX002 (ip), vehicle: Klucel (hydroxypropylcellulose) (HPC)
[8] = dose: 100.0 mg/kg/injection, schedule: Q04DX003 (ip), vehicle: saline with Tween-80
[9] = dose: 200.0 mg/kg/injection, schedule: Q04DX003 (ip), vehicle: saline with Tween-80

COC[CH2][Hg][O]C(C)=O
T/C (dose: 3.12 mg/kg/injection, schedule: Q04DX002 (ip), vehicle: Klucel (hydroxypropylcellulose) (HPC)): 98 % of control
T/C (dose: 6.25 mg/kg/injection, schedule: Q04DX002 (ip), vehicle: Klucel (hydroxypropylcellulose) (HPC)): 92 % of control
T/C (dose: 12.5 mg/kg/injection, schedule: Q04DX002 (ip), vehicle: Klucel (hydroxypropylcellulose) (HPC)): 88 % of control and 90 % of control

NC1CC2C=CCC(C1)C2 (stereo unspecified)
T/C [1]: 95 % of control
T/C [2]: 94 % of control

O=C(O)c1cc(S(=O)(=O)F)c(Cl)cc1Cl
T/C [3]: 102 % of control
T/C (dose: 50.0 mg/kg/injection, schedule: Q01DX009 (ip), vehicle: saline with Tween-80): 103 % of control
T/C [4]: 100 % of control and 101 % of control

CCOC(=O)C(C)(CCC#N)C(=O)OCC
T/C [1]: 95 % of control
T/C (dose: 100.0 mg/kg/injection, schedule: Q04DX002 (ip), vehicle: saline): 101 % of control
T/C [2]: 95 % of control
T/C (dose: 200.0 mg/kg/injection, schedule: Q04DX002 (ip), vehicle: saline): 105 % of control
T/C (dose: 400.0 mg/kg/injection, schedule: Q01DX001 (ip), vehicle: saline): 95 % of control
T/C (dose: 400.0 mg/kg/injection, schedule: Q04DX002 (ip), vehicle: saline): 105 % of control

CN(CCSSCCN(C)C(N)=S)C(N)=S
T/C (dose: 75.0 mg/kg/injection, schedule: Q04DX003 (ip), vehicle: saline): 96 % of control
T/C (dose: 150.0 mg/kg/injection, schedule: Q04DX003 (ip), vehicle: saline): 87 % of control
T/C (dose: 300.0 mg/kg/injection, schedule: Q04DX003 (ip), vehicle: saline): 96 % of control

CC(CCC/C=C/CCCN(C)C(=N)N)CC(C)C1OC(=O)C(C)C(O)/C=C/C(C)C(O)C(C)C(O)C(C)C(O)CCCC(O)CC2(O)OC(CC(OC(=O)CC(=O)O)CC(O)CC(O)C(C)C(O)/C=C/C=C/C1C)CC(O)C2O (stereo unspecified)
T/C (dose: 0.48 mg/kg/injection, schedule: Q01DX009 (ip), vehicle: saline): 90 % of control
T/C (dose: 0.73 mg/kg/injection, schedule: Q01DX009 (ip), vehicle: saline): 92 % of control
T/C (dose: 0.96 mg/kg/injection, schedule: Q04DX003 (ip), vehicle: saline): 106 % of control
T/C (dose: 1.09 mg/kg/injection, schedule: Q01DX009 (ip), vehicle: saline): 92 % of control
T/C (dose: 1.46 mg/kg/injection, schedule: Q04DX003 (ip), vehicle: saline): 104 % of control
T/C (dose: 2.18 mg/kg/injection, schedule: Q04DX003 (ip), vehicle: saline): 120 % of control
T/C (dose: 3.2 mg/kg/injection, schedule: Q04DX003 (ip), vehicle: saline): 97 % of control
T/C (dose: 4.9 mg/kg/injection, schedule: Q04DX003 (ip), vehicle: saline): 103 % of control and 86 % of control
T/C (dose: 7.3 mg/kg/injection, schedule: Q04DX003 (ip), vehicle: saline): 92 % of control
T/C (dose: 23.0 micrograms/kg/injection, schedule: Q01DX001 (ip), vehicle: saline): 98 % of control
T/C (dose: 23.0 micrograms/kg/injection, schedule: Q01DX009 (ip), vehicle: saline): 100 % of control
T/C (dose: 23.0 micrograms/kg/injection, schedule: Q04DX003 (ip), vehicle: saline): 105 % of control
T/C (dose: 47.0 micrograms/kg/injection, schedule: Q01DX001 (ip), vehicle: saline): 104 % of control
T/C (dose: 47.0 micrograms/kg/injection, schedule: Q01DX009 (ip), vehicle: saline): 108 % of control
T/C (dose: 47.0 micrograms/kg/injection, schedule: Q04DX003 (ip), vehicle: saline): 106 % of control
T/C (dose: 95.0 micrograms/kg/injection, schedule: Q01DX001 (ip), vehicle: saline): 97 % of control
T/C (dose: 95.0 micrograms/kg/injection, schedule: Q01DX009 (ip), vehicle: saline): 94 % of control
T/C (dose: 95.0 micrograms/kg/injection, schedule: Q04DX003 (ip), vehicle: saline): 101 % of control
T/C (dose: 141.0 micrograms/kg/injection, schedule: Q01DX009 (ip), vehicle: saline): 106 % of control
T/C (dose: 141.0 micrograms/kg/injection, schedule: Q04DX003 (ip), vehicle: saline): 97 % of control
T/C (dose: 215.0 micrograms/kg/injection, schedule: Q01DX009 (ip), vehicle: saline): 105 % of control
T/C (dose: 215.0 micrograms/kg/injection, schedule: Q04DX003 (ip), vehicle: saline): 100 % of control
T/C (dose: 322.0 micrograms/kg/injection, schedule: Q01DX009 (ip), vehicle: saline): 103 % of control
T/C (dose: 322.0 micrograms/kg/injection, schedule: Q04DX003 (ip), vehicle: saline): 103 % of control

Cn1nc(CC(=O)O)c(C(N)=O)c1N
T/C (dose: 12.5 mg/kg/injection, schedule: Q01DX009 (ip), vehicle: Klucel (hydroxypropylcellulose) (HPC)): 93 % of control
T/C (dose: 25.0 mg/kg/injection, schedule: Q01DX009 (ip), vehicle: Klucel (hydroxypropylcellulose) (HPC)): 101 % of control
T/C [5]: 96 % of control and 102 % of control
T/C (dose: 200.0 mg/kg/injection, schedule: Q01DX009 (ip), vehicle: Klucel (hydroxypropylcellulose) (HPC)): 98 % of control

O=C(CCc1ccc(C(=O)Nc2ccc(C3=NCCN3)cc2)cc1)Nc1ccc(C2=NCCN2)cc1
T/C (dose: 1.87 mg/kg/injection, schedule: Q01DX Z (ip), vehicle: carboxymethylcellulose (CMC)): 101 % of control
T/C (dose: 3.75 mg/kg/injection, schedule: Q01DX Z (ip), vehicle: carboxymethylcellulose (CMC)): 103 % of control
T/C (dose: 7.5 mg/kg/injection, schedule: Q01DX Z (ip), vehicle: carboxymethylcellulose (CMC)): 99 % of control
T/C (dose: 15.0 mg/kg/injection, schedule: Q01DX Z (ip), vehicle: carboxymethylcellulose (CMC)): 235 % of control
T/C (dose: 30.0 mg/kg/injection, schedule: Q01DX Z (ip), vehicle: carboxymethylcellulose (CMC)): 223 % of control and 295 % of control
T/C (dose: 60.0 mg/kg/injection, schedule: Q01DX Z (ip), vehicle: carboxymethylcellulose (CMC)): 239 % of control and 262 % of control

CC(NC(=O)c1ccccc1)C(=O)O (stereo unspecified)
T/C [5]: 110 % of control
T/C (dose: 100.0 mg/kg/injection, schedule: Q01DX009 (ip), vehicle: Klucel (hydroxypropylcellulose) (HPC)): 91 % of control
T/C [6]: 90 % of control
T/C [7]: 108 % of control
T/C (dose: 400.0 mg/kg/injection, schedule: Q04DX002 (ip), vehicle: Klucel (hydroxypropylcellulose) (HPC)): 93 % of control

Nc1ccccc1SC1CC(=O)N(c2ccc(Cl)cc2)C1=O (stereo unspecified)
T/C [4]: 91 % of control
T/C [8]: 89 % of control
T/C (dose: 200.0 mg/kg/injection, schedule: Q01DX009 (ip), vehicle: saline with Tween-80): 88 % of control
T/C [9]: 101 % of control
T/C (dose: 400.0 mg/kg/injection, schedule: Q01DX009 (ip), vehicle: saline with Tween-80): 98 % of control
T/C (dose: 400.0 mg/kg/injection, schedule: Q04DX003 (ip), vehicle: saline with Tween-80): 97 % of control

Cc1cccc(-n2cnc3c(=O)[nH]c(N)nc32)c1
T/C (dose: 100.0 mg/kg/injection, schedule: Q04DX003 (ip), vehicle: Klucel (hydroxypropylcellulose) (HPC)): 95 % of control
T/C (dose: 200.0 mg/kg/injection, schedule: Q04DX003 (ip), vehicle: Klucel (hydroxypropylcellulose) (HPC)): 95 % of control
T/C (dose: 400.0 mg/kg/injection, schedule: Q04DX003 (ip), vehicle: Klucel (hydroxypropylcellulose) (HPC)): 93 % of control

N#CC12OC1(C#N)C(=O)c1ccccc1C2=O (stereo unspecified)
T/C (dose: 75.0 mg/kg/injection, schedule: Q01DX001 (ip), vehicle: Klucel (hydroxypropylcellulose) (HPC)): 92 % of control

CCS(=O)(=O)CS(=O)(=O)c1ccc(C)cc1
T/C (dose: 100.0 mg/kg/injection, schedule: Q01DX001 (ip), vehicle: Klucel (hydroxypropylcellulose) (HPC)): 103 % of control
T/C (dose: 200.0 mg/kg/injection, schedule: Q01DX001 (ip), vehicle: Klucel (hydroxypropylcellulose) (HPC)): 103 % of control
T/C (dose: 400.0 mg/kg/injection, schedule: Q01DX001 (ip), vehicle: Klucel (hydroxypropylcellulose) (HPC)): 103 % of control

NC(CS(=O)c1ccc(Cl)cc1)C(=O)O (stereo unspecified)
T/C [8]: 97 % of control
T/C [9]: 92 % of control

CC(=O)OC1OC(CF)C(OC(C)=O)C1OC(C)=O (stereo unspecified)
T/C [4]: 92 % of control

CCCCCCCCCCC(CCCCCCCCCC)CC1CCCCC1
T/C (dose: 100.0 mg/kg/injection, schedule: Q01DX001 (ip), vehicle: saline + alcohol): 102 % of control
T/C (dose: 200.0 mg/kg/injection, schedule: Q01DX001 (ip), vehicle: saline + alcohol): 94 % of control
T/C (dose: 400.0 mg/kg/injection, schedule: Q01DX001 (ip), vehicle: saline + alcohol): 100 % of control

COc1cc2c(c(OC)c1OC)-c1ccc(O)c(=O)cc1C(N)CC2 (stereo unspecified)
T/C (dose: 6.25 mg/kg/injection, schedule: Q01DX009 (ip), vehicle: saline with Tween-80): 98 % of control
T/C (dose: 12.5 mg/kg/injection, schedule: Q01DX009 (ip), vehicle: saline with Tween-80): 100 % of control
T/C [3]: 94 % of control

CC(C)(C)NC(=O)NC(C)(C)C
T/C (dose: 50.0 mg/kg/injection, schedule: Q04DX002 (ip), vehicle: Klucel (hydroxypropylcellulose) (HPC)): 95 % of control
T/C [6]: 92 % of control
T/C [7]: 103 % of control
